Results as given in PubChem BioAssay (NCI).
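Cultured in 96-well plates, cells were exposed to test compound for 48 hours across five concentrations. TGI: concentration producing complete growth inhibition.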

Experiments:
Assay in all cases: NCI-60 cell line screen, 48 h
786-0 renal = tested on: 786-0 renal
A498 renal = tested on: A498 renal
A549 NSCLC = tested on: A549 NSCLC
ACHN renal = tested on: ACHN renal
BT-549 breast = tested on: BT-549 breast
CAKI-1 renal = tested on: CAKI-1 renal
CCRF-CEM leukemia = tested on: CCRF-CEM leukemia
COLO 205 colon = tested on: COLO 205 colon
DU-145 prostate = tested on: DU-145 prostate
EKVX NSCLC = tested on: EKVX NSCLC
HCC-2998 colon = tested on: HCC-2998 colon
HCT-116 colon = tested on: HCT-116 colon
HCT-15 colon = tested on: HCT-15 colon
HL-60(TB) leukemia = tested on: HL-60(TB) leukemia
HOP-62 NSCLC = tested on: HOP-62 NSCLC
HOP-92 NSCLC = tested on: HOP-92 NSCLC
HS 578T breast = tested on: HS 578T breast
HT29 colon = tested on: HT29 colon
IGROV1 ovarian = tested on: IGROV1 ovarian
K-562 leukemia = tested on: K-562 leukemia
KM12 colon = tested on: KM12 colon
LOX IMVI melanoma = tested on: LOX IMVI melanoma
M14 melanoma = tested on: M14 melanoma
MALME-3M melanoma = tested on: MALME-3M melanoma
MCF7 breast = tested on: MCF7 breast
MDA-MB-231 breast = tested on: MDA-MB-231 breast
MDA-MB-435 = tested on: MDA-MB-435
MDA-N = tested on: MDA-N
MOLT-4 leukemia = tested on: MOLT-4 leukemia
NCI-H226 lung = tested on: NCI-H226 lung
NCI-H23 lung = tested on: NCI-H23 lung
NCI-H460 lung = tested on: NCI-H460 lung
NCI-H522 lung = tested on: NCI-H522 lung
NCI/ADR-RES ovarian = tested on: NCI/ADR-RES ovarian
OVCAR-3 ovarian = tested on: OVCAR-3 ovarian
OVCAR-5 ovarian = tested on: OVCAR-5 ovarian
OVCAR-8 ovarian = tested on: OVCAR-8 ovarian
PC-3 prostate = tested on: PC-3 prostate
RXF 393 renal = tested on: RXF 393 renal
SF-268 CNS = tested on: SF-268 CNS
SF-295 CNS = tested on: SF-295 CNS
SF-539 CNS = tested on: SF-539 CNS
SK-MEL-28 melanoma = tested on: SK-MEL-28 melanoma
SK-MEL-5 melanoma = tested on: SK-MEL-5 melanoma
SK-OV-3 ovarian = tested on: SK-OV-3 ovarian
SN12C renal = tested on: SN12C renal
SNB-19 CNS = tested on: SNB-19 CNS
SNB-75 CNS = tested on: SNB-75 CNS
SW-620 colon = tested on: SW-620 colon
T-47D breast = tested on: T-47D breast
TK-10 renal = tested on: TK-10 renal
U251 CNS = tested on: U251 CNS
UACC-257 melanoma = tested on: UACC-257 melanoma
UACC-62 melanoma = tested on: UACC-62 melanoma
UO-31 renal = tested on: UO-31 renal
OVCAR-4 ovarian = tested on: OVCAR-4 ovarian
RPMI-8226 leukemia = tested on: RPMI-8226 leukemia
SK-MEL-2 melanoma = tested on: SK-MEL-2 melanoma
SR leukemia = tested on: SR leukemia

Question: For `CC(C)OP(=O)(OC(C)C)C(C(C)C)N(C)/C(F)=N/C(F)(F)F` (stereo not drawn), which TGI (786-0 renal) is on record?
Answer: > 100 µM

Question: And the TGI (A498 renal)?
Answer: > 100 µM

Question: What about the TGI (A549 NSCLC) of the same compound?
Answer: > 100 µM

Question: What about the TGI (ACHN renal) of the same compound?
Answer: > 100 µM

Question: What about the TGI (BT-549 breast) of the same compound?
Answer: > 100 µM

Question: What about the TGI (CAKI-1 renal) of the same compound?
Answer: > 100 µM

Question: And the TGI (CCRF-CEM leukemia)?
Answer: > 100 µM

Question: What about the TGI (COLO 205 colon) of the same compound?
Answer: > 100 µM

Question: And the TGI (DU-145 prostate)?
Answer: > 100 µM

Question: And the TGI (EKVX NSCLC)?
Answer: > 100 µM

Question: What about the TGI (HCC-2998 colon) of the same compound?
Answer: > 100 µM

Question: And the TGI (HCT-116 colon)?
Answer: > 100 µM

Question: And the TGI (HCT-15 colon)?
Answer: > 100 µM

Question: What about the TGI (HL-60(TB) leukemia) of the same compound?
Answer: > 100 µM

Question: What about the TGI (HOP-62 NSCLC) of the same compound?
Answer: > 100 µM

Question: And the TGI (HOP-92 NSCLC)?
Answer: > 100 µM

Question: What about the TGI (HS 578T breast) of the same compound?
Answer: > 100 µM

Question: What about the TGI (HT29 colon) of the same compound?
Answer: > 100 µM

Question: And the TGI (IGROV1 ovarian)?
Answer: > 100 µM

Question: And the TGI (K-562 leukemia)?
Answer: > 100 µM

Question: What about the TGI (KM12 colon) of the same compound?
Answer: > 100 µM

Question: And the TGI (LOX IMVI melanoma)?
Answer: > 100 µM

Question: And the TGI (M14 melanoma)?
Answer: > 100 µM

Question: What about the TGI (MALME-3M melanoma) of the same compound?
Answer: > 100 µM

Question: What about the TGI (MCF7 breast) of the same compound?
Answer: > 100 µM

Question: And the TGI (MDA-MB-231 breast)?
Answer: > 100 µM

Question: What about the TGI (MDA-MB-435) of the same compound?
Answer: > 100 µM

Question: What about the TGI (MDA-N) of the same compound?
Answer: > 100 µM

Question: And the TGI (MOLT-4 leukemia)?
Answer: > 100 µM

Question: And the TGI (NCI-H226 lung)?
Answer: > 100 µM

Question: And the TGI (NCI-H23 lung)?
Answer: > 100 µM

Question: What about the TGI (NCI-H460 lung) of the same compound?
Answer: > 100 µM

Question: What about the TGI (NCI-H522 lung) of the same compound?
Answer: > 100 µM

Question: What about the TGI (NCI/ADR-RES ovarian) of the same compound?
Answer: > 100 µM

Question: What about the TGI (OVCAR-3 ovarian) of the same compound?
Answer: > 100 µM

Question: What about the TGI (OVCAR-5 ovarian) of the same compound?
Answer: > 100 µM

Question: And the TGI (OVCAR-8 ovarian)?
Answer: > 100 µM

Question: And the TGI (PC-3 prostate)?
Answer: > 100 µM

Question: What about the TGI (RXF 393 renal) of the same compound?
Answer: > 100 µM

Question: What about the TGI (SF-268 CNS) of the same compound?
Answer: > 100 µM

Question: What about the TGI (SF-295 CNS) of the same compound?
Answer: > 100 µM

Question: And the TGI (SF-539 CNS)?
Answer: > 100 µM

Question: What about the TGI (SK-MEL-28 melanoma) of the same compound?
Answer: > 100 µM

Question: And the TGI (SK-MEL-5 melanoma)?
Answer: > 100 µM

Question: And the TGI (SK-OV-3 ovarian)?
Answer: > 100 µM

Question: What about the TGI (SN12C renal) of the same compound?
Answer: > 100 µM

Question: What about the TGI (SNB-19 CNS) of the same compound?
Answer: > 100 µM

Question: And the TGI (SNB-75 CNS)?
Answer: > 100 µM

Question: What about the TGI (SW-620 colon) of the same compound?
Answer: > 100 µM

Question: What about the TGI (T-47D breast) of the same compound?
Answer: > 100 µM

Question: What about the TGI (TK-10 renal) of the same compound?
Answer: > 100 µM

Question: What about the TGI (U251 CNS) of the same compound?
Answer: > 100 µM

Question: What about the TGI (UACC-257 melanoma) of the same compound?
Answer: > 100 µM

Question: What about the TGI (UACC-62 melanoma) of the same compound?
Answer: > 100 µM

Question: And the TGI (UO-31 renal)?
Answer: > 100 µM

Question: What does the source list for `O=c1oc2ccc(Cl)cc2cc1-c1cn2cc(Cl)ccc2n1`?
Answer: TGI (786-0 renal): > 100 µM; TGI (A549 NSCLC): > 87.8 µM; TGI (ACHN renal): > 100 µM; TGI (BT-549 breast): > 100 µM; TGI (CAKI-1 renal): > 100 µM; TGI (CCRF-CEM leukemia): > 100 µM; TGI (COLO 205 colon): > 100 µM; TGI (DU-145 prostate): > 100 µM; TGI (EKVX NSCLC): > 100 µM; TGI (HCC-2998 colon): > 100 µM; TGI (HCT-116 colon): > 100 µM; TGI (HCT-15 colon): > 100 µM; TGI (HL-60(TB) leukemia): > 100 µM; TGI (HOP-62 NSCLC): > 100 µM; TGI (HOP-92 NSCLC): > 100 µM; TGI (HS 578T breast): > 68.5 µM; TGI (HT29 colon): > 58.8 µM; TGI (IGROV1 ovarian): > 100 µM; TGI (K-562 leukemia): > 100 µM; TGI (KM12 colon): > 58.6 µM; TGI (LOX IMVI melanoma): > 100 µM; TGI (M14 melanoma): > 100 µM; TGI (MALME-3M melanoma): 92.5 µM; TGI (MCF7 breast): 6.37 µM; TGI (MDA-MB-231 breast): > 100 µM; TGI (MDA-MB-435): 1.18 µM; TGI (MDA-N): 2.79 µM; TGI (MOLT-4 leukemia): > 100 µM; TGI (NCI-H226 lung): > 100 µM; TGI (NCI-H23 lung): > 100 µM; TGI (NCI-H460 lung): > 100 µM; TGI (NCI-H522 lung): 11.2 µM; TGI (NCI/ADR-RES ovarian): > 85.9 µM; TGI (OVCAR-3 ovarian): > 100 µM; TGI (OVCAR-4 ovarian): > 100 µM; TGI (OVCAR-5 ovarian): > 100 µM; TGI (OVCAR-8 ovarian): > 100 µM; TGI (PC-3 prostate): > 100 µM; TGI (RPMI-8226 leukemia): > 100 µM; TGI (RXF 393 renal): > 100 µM; TGI (SF-268 CNS): > 100 µM; TGI (SF-295 CNS): > 100 µM; TGI (SF-539 CNS): > 100 µM; TGI (SK-MEL-2 melanoma): > 100 µM; TGI (SK-MEL-28 melanoma): > 100 µM; TGI (SK-MEL-5 melanoma): > 100 µM; TGI (SK-OV-3 ovarian): > 100 µM; TGI (SN12C renal): > 100 µM; TGI (SNB-19 CNS): > 27.1 µM; TGI (SNB-75 CNS): > 100 µM; TGI (SR leukemia): > 100 µM; TGI (SW-620 colon): > 100 µM; TGI (T-47D breast): > 100 µM; TGI (TK-10 renal): > 100 µM; TGI (U251 CNS): > 100 µM; TGI (UACC-257 melanoma): > 100 µM; TGI (UACC-62 melanoma): 15 µM; TGI (UO-31 renal): > 100 µM
